As a reminder, the IC50 is the concentration that inhibits the measured activity by half.

The experiment deals with Huntingtin protein (HTT). The experiment in a line: Endogenous Huntingtin Protein Assay (MSD electrochemiluminescence ELISA; MW1 or MAB2166 capture, #5656S detection). Type of experiment: cell-based, human. The protocol:
The Endogenous Huntingtin Protein assay used in Example 2 was developed using the Best Pair antibodies identified in Table 2, providing highly sensitive, high-throughput detection assays for polyglutamine-expanded (mHTT) and total human HTT in multiple cell systems. The platform used for the assay is the ELISA-based Meso Scale Discovery (MSD) electrochemiluminescence assay platform.
Meso Scale Discovery (MSD) 96-well or 384-well plates were coated overnight at 4° C. with MW1 (expanded polyglutamine) or MAB2166 monoclonal antibody (for capture) at a concentration of 1 μg/mL in PBS (30 μL per well). Plates were then washed three times with 300 μL wash buffer (0.05% Tween-20 in PBS) and blocked (100 μL blocking buffer; 5% BSA in PBS) for 4-5 hours at room temperature with rotational shaking and then washed three times with wash buffer.
Samples (25 μL) were transferred to the antibody-coated MSD plate and incubated overnight at 4° C. After removal of the lysates, the plate was washed three times with wash buffer, and 25 μL of #5656S (Cell signaling; rabbit monoclonal) secondary antibody (diluted to 0.25 μg/mL in 0.05% Tween-20 in blocking buffer) was added to each well and incubated with shaking for 1 Hour at room temperature. Following incubation with the secondary antibody, the wells were rinsed with wash buffer after which 25 μL of goat anti-rabbit SULFO TAG secondary detection antibody (required aspect of the MSD system) (diluted to 0.25 μg/mL in 0.05% Tween-20 in blocking buffer) was added to each well and incubated with shaking for 1 hour at room temperature. After rinsing three times with wash buffer, 150 μL of read buffer T with surfactant (MSD) were added to each empty well, and the plate was imaged on a SI 6000 imager (MSD) according to manufacturers' instructions provided for 96- or 384-well plates.
For orientation: In an ELISA, binding on a coated surface is turned into a signal by an enzyme label.
The compound `CC1(C)CC(Oc2ccc(-c3c(F)cc(-c4cn[nH]c4)cc3F)nn2)CC(C)(C)N1` [Cpd 458, 3-[2,6-difluoro-4-(1H-pyrazol-4-yl)phenyl]-6-[(2,2,6,6-tetramethylpiperidin-4-yl)oxy]pyridazine] came in with an IC50 of 3 to 9 µM. The result for `Oc1cc(-c2cn[nH]c2)ccc1-c1ccc(N2CC3(CCNC3)C2)nn1` [Cpd 459, 2-[6-(2,6-diazaspiro[3.4]oct-2-yl)pyridazin-3-yl]-5-(1H-pyrazol-4-yl)phenol] reads 3 to 9 µM; that for `CN(c1ccc(-c2ccc(-c3cn[nH]c3)nc2O)nn1)C1CC(C)(C)NC(C)(C)C1` [Cpd 460, 3-{6-[methyl(2,2,6,6-tetramethylpiperidin-4-yl)amino]pyridazin-3-yl}-6-(1H-pyrazol-4-yl)pyridin-2-ol], 3 to 9 µM; that for `CC1(C)CC(Oc2ccc(-c3ccc(-c4cn[nH]c4)nc3O)nn2)CC(C)(C)N1` [Cpd 461, 6-(1H-pyrazol-4-yl)-3-{6-[(2,2,6,6-tetramethylpiperidin-4-yl)oxy]pyridazin-3-yl}pyridin-2-ol], 3 to 9 µM. The result for `CN(c1nnc(Oc2cccc(-c3cn[nH]c3)c2)s1)C1CC(C)(C)NC(C)(C)C1` [Cpd 462, N,2,2,6,6-pentamethyl-N-{5-[3-(1H-pyrazol-4-yl)phenoxy]-1,3,4-thiadiazol-2-yl}piperidin-4-amine] reads 3 to 9 µM. The result for `CN(c1nnc(Oc2ccc(-c3cn[nH]c3)cc2)s1)C1CC(C)(C)NC(C)(C)C1` [Cpd 463, N,2,2,6,6-pentamethyl-N-{5-[4-(1H-pyrazol-4-yl)phenoxy]-1,3,4-thiadiazol-2-yl}piperidin-4-amine] reads 3 to 9 µM; that for `CC1(C)CC(Oc2ccc(-c3ccc(-c4cn[nH]c4)cc3C(F)F)nn2)CC(C)(C)N1` [Cpd 464, 3-[2-(difluoromethyl)-4-(1H-pyrazol-4-yl)phenyl]-6-[(2,2,6,6-tetramethylpiperidin-4-yl)oxy]pyridazine], 3 to 9 µM; that for `CN(c1ccc(-c2ccc(-c3cn[nH]c3)cc2C(F)F)nn1)C1CC(C)(C)NC(C)(C)C1` [Cpd 465, 6-[2-(difluoromethyl)-4-(1H-pyrazol-4-yl)phenyl]-N-methyl-N-(2,2,6,6-tetramethylpiperidin-4-yl)pyridazin-3-amine], 3 to 9 µM.

Source of the values: patent US11638706B2, “Methods for treating Huntington's disease” (PTC Therapeutics, Inc., priority 2015, dated 2023).
